In US20160297828A1, “SPIROCYCLIC COMPOUNDS CONTAINING SPIRO[INDOLYL-3,1'-PYRROLO[3,4-C]PYRROLE] CORE AND SULPHUR-CONTAINING AMINO ACID RESIDUES” (priority 2013, published 2016):
Several values for one entry are separate records, joined by “and”; a condition that tells them apart may be missing. Identical values can stand only once. Marks after values point to notes of the source that are not given here.

Assays:
[1] = test system: ischemic brain damage in rats; settings: 60 mg/kg and 30 mg/kg, 3 and 7 hours after reperfusion; cited from earlier work
liver and pancrea cells = assay: Pro/antiapoptosis properties, electrophoresis of DNA fragments; format: in vivo; settings: intact male Wistar rats; 50 mg/kg
Description: The assessment of pro/antiapoptotosis properties of substances was carried in intact male rats of Wistar line. The test substance were administered for 2 weeks by means of a probe in aqueous suspension containing Tween-80 at a dose of 50 mg/kg of body weight. The animals were euthanized by cervical vertebrae translocation 24 hours after the experiment. The identification of apoptosis of liver and pancrea cells was performed using electrophoretic method. […] Cell necrosis conditioned the “smeared” nature of DNA migration zone. The luminescence band of intact DNA was in the starting area.
The expression of apoptosis manifestations was assessed by registration of DNA fragments via electrophoresis.

rats = assay: Acute normobaric hypoxic hypoxia with hypercapnia (ANHHH), life duration; format: in vivo; settings: preventive administration; SI-86 and SI-108 10 mg/kg iv, mexydol 100 mg/kg ip
Description: The study of antihypoxic activity of 10 original derivatives of 3,2′-spiro-pyrrolo-2-oxindole was conducted on models of acute normobaric hypoxic hypoxia with hypercapnia (ANHHH) and acute asphyxia. ANHHH was modeled by means of rat arrangement into isolated pressure compartments (0.001 m^3). The observation conducted until the death of the animals. The antihypoxic activity was assessed by life duration (in minutes) in relation to the control taken as 100%, by the formula AA=tt/tk×100%, wherein AA—antihypoxic activity (%), tt—life duration of test animals, tc—life duration of control animals.
(§1) The preliminary screening of test substances was performed on ANHHH model. All derivatives were administered in the same dose of 10 mg/kg […] (iv) 1 hour prior to pathological state modeling. […] The effectiveness of a leader compound was evaluated at doses 5; 10 and 15 mg/kg iv. Mexydol was chosen as a reference drug having antihypoxic action in combination with antioxidant and membrane protective activity, which is successfully used in patients with CVA and IM. Mexydol was administered intraperitoneally (ip) at a dose of 100 mg/kg according to similar scheme.

[2] = test system: rat heart bioelectrical activity; assay: Acute asphyxia, duration of heart bioelectrical activity; format: in vivo, rats
Description: Acute asphyxia was modeled in rats anesthetized with propofol (60 mg/kg) intraperitoneally (ip) by complete clamping the trachea at electrocardiogram (EGC) registration. The antihypoxic effect was evaluated by duration of heart bioelectric activity (HBA). This model allows to estimate the heart sensitivity to hypoxia. An isoelectric ECG line for 1 minute considered as HBA termination, the pint of HBA termination corresponded to the last QRS complex on the ECG. The calculation of […] activity was performed by the above formula considering a point of last QRS complex registration as a lifetime.
as §1

[3] = test system: rats with intracerebral hemorrhage; assay: Lethality of rats with intracerebral hemorrhage of average severity; format: in vivo
Description: The chosen model allows to reproduce clinical pattern of […] and is adequate for clinical study of potential neuroprotective agents.
As comparators the following drugs were used: mexydol (“Mexydol” UC Pharmasoft, Russia), 100 mg/kg; citicoline (“Somazina” Ferrer International, SA, Spain), 250 mg/kg; aktovegin (“Aktovegin”, Nycomed, Austria), 16 mg/kg pyracetam (“Pyracetam” Darnitsa, Ukraine), 400 mg/kg. According to the latest clinical guidelines regarding the treatment of patients with CVA approved by the Ministry of Health of Ukraine (Order No. 602 dated 3 Aug. 2012), all these drugs are allowed to be included into schemes for intensive patients therapy with CVA as neuroprotective agents. They were used at recommended doses for preclinical studies (McGrow C. P. Experimental Cerebral Infarction Effects of Pentobarbital in Mongolian Gerbils/C. P. McGrow//Arch. Neurol.-1977.-Vol. 34, No. 6.-P. 334-336). Experimental therapy of acute cerebral ischemia with SI-86 compound and comparator started 1 hour after IUD once a day for 21 days. […] Reference drugs were injected intraperitoneally (ip). Rats of control pathology group were injected by autoblood and as therapy 0.9% NaCI solution was administered calculated for 2 ml/kg iv.
Pseudo-operated rats were exposed to all interventions (anesthesia, craniotomy) excluding autoblood administration that leveled traumatic impact of experimental conditions.
(§2) Evaluation of the ability of animals to learn and memorize of aversive stimulus was examined in the test of conditioned response of passive avoidance (CRPA). The technique is based on innate rat instinct to limited shadowy space. The study in rats was conducted in two-compartment unit consisted of two sections—light and dark. An animal was arranged into light compartment, fixing latency time for entering into the dark compartment, wherein rat received current irritation and ran in the light compartment. CRPA retention was tested every other day under latency time change of rat entering into the dark compartment. Also the number of animals was noted not fully entered the dark chamber. Cerebroprotective efficiency criteria of studied compounds were also animal death term (days) and their mortality rate (in %).
Quantitative data were processed using statistical StatPlus 2009 processing. The statistical significance of differences was assessed by Fisher's angular transformation (lethality outcome), also parametric t Student criterion were used in case of normal distribution of variation series, nonparametric W White criterion—in its absence.

[4] = test system: rats with intracerebral hemorrhage; assay: Neurological deficit (C. P. McGrow stroke-index scale) in rats with intracerebral hemorrhage; format: in vivo; settings: n = 15
Description: (§3) Neuroprotective effect of 3,2′-spiro-pyrrolo-2-oxindole derivative (SI-86 compound) was studied on IUD model of moderate severity modeled under propofol anesthesia (60 mg/kg intraperitoneally (ip)) by autoblood administration into the brain internal capsule (stereotactic coordinates of the projection: H=7.0 mm, L=3.0 mm, A=1.5 mm from bregma) ([…]) (Method for reproduction of intracerebral hemorrhage in rats/O. K. Yarosh, S. V. Kyrychenko, S. P. Halimonchyk [et al.]//Circulation and hemostasis.-2005.-No. 1.-P. 77-81). The chosen model allows to reproduce clinical pattern of […] and is adequate for clinical study of potential neuroprotective agents.
(§4) As comparators the following drugs were used: mexydol (“Mexydol” UC Pharmasoft, Russia), 100 mg/kg; citicoline (“Somazina” Ferrer International, SA, Spain), 250 mg/kg; aktovegin (“Aktovegin”, Nycomed, Austria), 16 mg/kg pyracetam (“Pyracetam” Darnitsa, Ukraine), 400 mg/kg. According to the latest clinical guidelines regarding the treatment of patients with CVA approved by the Ministry of Health of Ukraine (Order No. 602 dated 3 Aug. 2012), all these drugs are allowed to be included into schemes for intensive patients therapy with CVA as neuroprotective agents. They were used at recommended doses for preclinical studies (McGrow C. P. Experimental Cerebral Infarction Effects of Pentobarbital in Mongolian Gerbils/C. P. McGrow//Arch. Neurol.-1977.-Vol. 34, No. 6.-P. 334-336). Experimental therapy of acute cerebral ischemia with SI-86 compound and comparator started 1 hour after IUD once a day for 21 days. The SI-86 derivative was investigated in conventionally effective dose of 10 mg/kg […] (iv)-dose that according to the results of our previous study provides maximum antihypoxic activity of SI-86 compound. Reference drugs were injected intraperitoneally (ip). Rats of control pathology group were injected by autoblood and as therapy 0.9% NaCI solution was administered calculated for 2 ml/kg […].
Neurological deficit in animals with acute CVA respectively in acute (4th day) and recovery (21 st day) periods was measured on C. P. McGrow stroke-index scale. The state severity was determined by amount of relevant points: to 3 points-mild, 3 to 7 points-average, above 7 points-severe degree. Pareses, paralyses of limbs, tremors, circus movement, ptoses, lateral positions, ability of rats to be maintained at the core of 15 cm diameter, rotating at the rate of 3 rpm were noted. The animals were tested daily by displaying the amount of points:
one-sided semi-ptosis—0.5 points; one-sided ptosis—1 point; tremor—0.5 points; circus movements—0.5 points; pareses of limbs (for each limb)—1 point; paralyses of limbs (for each limb)—2 points; lateral position—3 points; disability to maintain on rotating rod during 4 minutes—3 points.

[5] = test system: rats with intracerebral hemorrhage; assay: Conditioned response of passive avoidance (CRPA) in rats with intracerebral hemorrhage; format: in vivo; settings: 21st day, n = 15
Description: as §3, §4, §2

[6] = 12 h, SI-86 10 mg/kg iv, mexydol 100, citocoline 250, actovegin 16, pyracetam 400 mg/kg

In the case of `Cc1c(Cl)cccc1S(=O)(=O)Nc1nc(CC(=O)N2CCN(C)CC2)cs1.Cl` [BVT-2733, 3-chloro-2-methyl-N-(4-(2-(4-methylpiperazin-1-yl)-2-oxoethyl)thiazol-2-yl)benzenesulfonamide hydrochloride], the “amount of ischemic brain damage” value [1] is given as “reduced the amount of ischemic brain damage”.
With `CCSCC[C@@H]1N[C@@]2(C(=O)Nc3ccccc32)[C@@H]2C(=O)N(c3ccc(C)cc3)C(=O)[C@H]12` [SI-34, 5′-(4-Methylphenyl)-3′-[2-(ethylthio)ethyl]-3a′,6a′-dihydro-2′H-spiro[indole-3, 1′-pyrrolo[3,4-c]pyrrol]-2,4′,6′(1H,3H′,5H′)-trione] the level of apoptosis (liver and pancrea cells) was “closed to that of control group”.
For `CCSCC[C@@H]1N[C@@]2(C(=O)N(Cc3ccc(Cl)cc3)c3ccccc32)[C@@H]2C(=O)N(c3ccc(C)cc3)C(=O)[C@H]12` [SI-108, 1-(4-Chloro-benzyl)-3′-[2-(ethylthio)ethyl]-5′-(4-methylphenyl)-3a′,6a′-dihydro-2′H-spiro[indole-3,1′-pyrrolo[3,4-c]pyrrol]-2,4′,6′(1H,3′H,5′H)-trione], the “increase of life duration in rats in relation to control” value (rats) was 28.6%, the Antihypoxic activity ([2]; 10 mg/kg iv) was −18.4% and the “Duration of heart bioelectrical activity” value ([2]; 10 mg/kg iv) was 9.5 ± 1.1 min.
For `CCc1nc(C)ccc1O.O=C(O)CCC(=O)O` [mexydol], the “Lethality, %” value [3, 6] was 0/0%*^#, the “Lethality, abs.” value [3, 6] was 0/0%*^# and the “Lethality, abs.” value ([3]; 24 h, same doses) was 0/0%*^#. The cerebroprotective protection ([3]; 24 h observation, SI-86 10, mexydol 100, citicoline 250 mg/kg) was 100%, the “Lethality, %” value ([3]; 48 h, same doses) was 7.9% and the “Lethality, abs.” value ([3]; 48 h, same doses) was 3. The “Lethality, %” value ([3]; 72 h, same doses) was 10.5%, the “Lethality, abs.” value ([3]; 72 h, same doses) was 4 and the “Lethality, %” value ([3]; 96 h, same doses) was 13.2%. The “Lethality, abs.” value ([3]; 96 h, same doses) was 5, the “reduction of mortality in rats at the end of the observation period relative to control” value ([3]; within 4 days of therapy, same doses) was 17.2% and the “neurological deficit, average point under C. P. McGrow scale” value ([4]; day 4, SI-86 10 mg/kg iv, mexydol 100, citocoline 250, actovegin 16, pyracetam 400 mg/kg ip) was 4.30 ± 0.25°*^#•$ points. The “neurological deficit, average point under C. P. McGrow scale” value ([4]; day 21, same doses) was 3.8 points and 3.80 ± 0.21°*^#•$ points, the “Latent period for entrance into dark compartment, prior study” value ([5]; SI-86 10 mg/kg iv, mexydol 100, citocoline 250, actovegin 16, pyracetam 400 mg/kg ip) was 11.30 ± 0.47°*^#$ s and the “Latent period for entrance into dark compartment, 24 hours after study” value ([5]; same doses) was 106.80 ± 2.77°*^#•$ s. The “increase of life duration in rats in relation to control” value (rats) was 80.2%, the Antihypoxic activity ([2]; 100 mg/kg ip) was “+50.9%” and the “Duration of heart bioelectrical activity” value ([2]; 100 mg/kg ip) was 17.5 ± 0.5 min.
